Results published in the supplement of paper PMC8617591.

Assays:
[1] = system: Mycobacterium tuberculosis Erdman (autoluminescent); experiment: total FIC50 (Loewe) at 50% inhibition, three-drug combination (log2); higher = more antagonistic
Method: (§1)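 DiaMOND equipotent three-drug combination dose responses (10 doses, 1.5- or 2-fold spacing, centred on IC90) against autoluminescent M. tuberculosis Erdman in 8 in vitro models. Read-out is OD600, or luminescence for the intracellular and dormancy models, normalised to untreated wells. Hill-fit Einf, AUC25 and GRinf are potency metrics; FIC50 and FIC90 are total Loewe fractional inhibitory concentrations as log2 (negative = synergy).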

[2] = system: Mycobacterium tuberculosis Erdman (autoluminescent); experiment: AUC25, normalised area under dose response up to IC25 (three-drug combination) (fraction (0-1)); higher = more potent at low dose
Method: as §1

[3] = system: Mycobacterium tuberculosis Erdman (autoluminescent); experiment: total FIC90 (Loewe) at 90% inhibition, three-drug combination (log2); higher = more antagonistic
Method: as §1

[4] = system: Mycobacterium tuberculosis Erdman (autoluminescent); experiment: GRinf, maximum normalised growth rate inhibition (three-drug combination) (unitless (-1 to 1)); higher = less effect (negative = killing)
Method: as §1

[5] = system: Mycobacterium tuberculosis Erdman (autoluminescent); experiment: Einf, fitted maximum growth inhibition of three-drug combination (fraction); higher = stronger maximal inhibition
Method: as §1

[6] = in vitro model: acidic pH 5.7, time point: constant (~7 days, model-specific)
[7] = in vitro model: acidic pH 5.7, time point: terminal (~4-5 doublings, model-specific)
[8] = in vitro model: butyrate, time point: constant (~7 days, model-specific)
[9] = in vitro model: butyrate, time point: terminal (~4-5 doublings, model-specific)
[10] = in vitro model: cholesterol 0.05 mM, time point: constant (~7 days, model-specific)
[11] = in vitro model: cholesterol 0.05 mM, time point: terminal (~4-5 doublings, model-specific)
[12] = in vitro model: cholesterol-high 0.2 mM, time point: constant (~7 days, model-specific)
[13] = in vitro model: cholesterol-high 0.2 mM, time point: terminal (~4-5 doublings, model-specific)
[14] = in vitro model: dormancy (butyrate + nitrate, low O2), time point: constant (~7 days, model-specific)
[15] = in vitro model: dormancy (butyrate + nitrate, low O2), time point: terminal (~4-5 doublings, model-specific)
[16] = in vitro model: standard 7H9 glycerol, time point: constant = terminal
[17] = in vitro model: valerate, time point: constant (~7 days, model-specific)
[18] = in vitro model: valerate, time point: terminal (~4-5 doublings, model-specific)
[19] = in vitro model: intracellular J774, time point: constant = terminal

CC[C@@H](CO)NCCN[C@@H](CC)CO [ethambutol] + NNC(=O)c1ccncc1 [isoniazid] + CC(=O)NC[C@H]1CN(c2ccc(N3CCOCC3)c(F)c2)C(=O)O1 [linezolid] was tested, and the “total FIC50” value [1, 6] was 0.672, the “total FIC50” value [1, 7] was 1.64 and the “total FIC50” value [1, 8] was 0.578. For the same molecule, the “total FIC50” value [1, 9] was 0.593, the “total FIC50” value [1, 10] was -0.315 and the “total FIC50” value [1, 11] was -1.8. The “total FIC50” value [1, 12] was 0.686, the “total FIC50” value [1, 13] was 0.382 and the “total FIC50” value [1, 14] was 0.669. The “total FIC50” value [1, 15] was 0.326, the “total FIC50” value [1, 16] was 0.88 and the “total FIC50” value [1, 17] was 0.573. For the same molecule, the “total FIC50” value [1, 18] was 0.769, the AUC25 [2, 6] was 0.108 and the AUC25 [2, 7] was 0.0511. The AUC25 [2, 8] was 0.101, the AUC25 [2, 9] was 0.0839 and the AUC25 [2, 10] was 0.148. It also gave an AUC25 [2, 11] of 0.166, an AUC25 [2, 12] of 0.102 and an AUC25 [2, 13] of 0.121. The AUC25 [2, 14] was 0.117, the AUC25 [2, 15] was 0.1 and the AUC25 [2, 16] was 0.0661. For the same molecule, the AUC25 [2, 17] was 0.127, the AUC25 [2, 18] was 0.0732 and the “total FIC90” value [3, 7] was 0.241. For the same molecule, the “total FIC90” value [3, 9] was 1.01, the “total FIC90” value [3, 13] was 1.42 and the “total FIC90” value [3, 15] was 0.438. For the same molecule, the “total FIC90” value [3, 19] was -0.0766, the “total FIC90” value [3, 18] was 0.881 and the GRinf [4, 6] was -0.311. The GRinf [4, 7] was -0.218, the GRinf [4, 8] was 0.0696 and the GRinf [4, 9] was 0.0902. For the same molecule, the GRinf [4, 10] was -0.305, the GRinf [4, 11] was -0.286 and the GRinf [4, 12] was -0.717. It also gave a GRinf [4, 13] of -0.966, a GRinf [4, 14] of 0.434 and a GRinf [4, 15] of -0.188. It also gave a GRinf [4, 19] of -0.189, a GRinf [4, 16] of 0.099 and a GRinf [4, 17] of -0.184. The GRinf [4, 18] was -0.0217, the Einf [5, 6] was 0.831 and the Einf [5, 7] was 0.939. It also gave an Einf [5, 8] of 0.9, an Einf [5, 9] of 0.943 and an Einf [5, 10] of 0.693. The Einf [5, 11] was 0.918, the Einf [5, 12] was 0.925 and the Einf [5, 13] was 1. It also gave an Einf [5, 14] of 0.801, an Einf [5, 15] of 0.971 and an Einf [5, 19] of 0.958. It also gave an Einf [5, 16] of 0.911, an Einf [5, 17] of 0.91 and an Einf [5, 18] of 0.944.
CC(C)/N=c1\cc2n(-c3ccc(Cl)cc3)c3ccccc3nc-2cc1Nc1ccc(Cl)cc1 [clofazimine] + NNC(=O)c1ccncc1 [isoniazid] + CC(=O)NC[C@H]1CN(c2ccc(N3CCOCC3)c(F)c2)C(=O)O1 [linezolid] was tested, and the “total FIC50” value [1, 6] was 0.331, the “total FIC50” value [1, 7] was 0.773 and the “total FIC50” value [1, 8] was 0.73. The “total FIC50” value [1, 9] was 0.921, the “total FIC50” value [1, 10] was -0.374 and the “total FIC50” value [1, 11] was 4.56. The “total FIC50” value [1, 12] was 0.36, the “total FIC50” value [1, 13] was 0.186 and the “total FIC50” value [1, 14] was 1.56. The “total FIC50” value [1, 15] was 1.16, the “total FIC50” value [1, 16] was 0.207 and the “total FIC50” value [1, 17] was 0.318. For the same molecule, the “total FIC50” value [1, 18] was 0.0839, the AUC25 [2, 6] was 0.0908 and the AUC25 [2, 7] was 0.0672. For the same molecule, the AUC25 [2, 8] was 0.113, the AUC25 [2, 9] was 0.0763 and the AUC25 [2, 10] was 0.133. It also gave an AUC25 [2, 11] of 0.141, an AUC25 [2, 12] of 0.124 and an AUC25 [2, 13] of 0.109. For the same molecule, the AUC25 [2, 14] was 0.0763, the AUC25 [2, 15] was 0.0355 and the AUC25 [2, 16] was 0.126. The AUC25 [2, 17] was 0.128, the AUC25 [2, 18] was 0.0875 and the “total FIC90” value [3, 7] was -0.102. For the same molecule, the “total FIC90” value [3, 8] was 1.87, the “total FIC90” value [3, 9] was 1.01 and the “total FIC90” value [3, 11] was 0.951. For the same molecule, the “total FIC90” value [3, 12] was 1.56, the “total FIC90” value [3, 13] was 0.424 and the “total FIC90” value [3, 14] was 1.18. For the same molecule, the “total FIC90” value [3, 15] was 0.734, the “total FIC90” value [3, 19] was 0.492 and the “total FIC90” value [3, 16] was 0.757. For the same molecule, the “total FIC90” value [3, 18] was 1.21, the GRinf [4, 6] was -0.134 and the GRinf [4, 7] was -0.192. The GRinf [4, 8] was -0.181, the GRinf [4, 9] was -0.106 and the GRinf [4, 10] was -0.0122. The GRinf [4, 11] was -0.198, the GRinf [4, 12] was -0.48 and the GRinf [4, 13] was -0.827. For the same molecule, the GRinf [4, 14] was 0.0823, the GRinf [4, 15] was -0.074 and the GRinf [4, 19] was 0.168. The GRinf [4, 16] was -0.237, the GRinf [4, 17] was -0.0388 and the GRinf [4, 18] was 0.0843. It also gave an Einf [5, 6] of 0.806, an Einf [5, 7] of 0.939 and an Einf [5, 8] of 0.954. For the same molecule, the Einf [5, 9] was 0.977, the Einf [5, 10] was 0.689 and the Einf [5, 11] was 0.902. The Einf [5, 12] was 0.934, the Einf [5, 13] was 1 and the Einf [5, 14] was 0.914. The Einf [5, 15] was 0.972, the Einf [5, 19] was 0.833 and the Einf [5, 16] was 0.959. The Einf [5, 17] was 0.885 and the Einf [5, 18] was 0.934.
For NNC(=O)c1ccncc1 [isoniazid] + O=[N+]([O-])c1cn2c(n1)OC[C@@H](OCc1ccc(OC(F)(F)F)cc1)C2 [pretomanid] + CO[C@H]1/C=C/O[C@@]2(C)Oc3c(C)c(O)c4c(O)c(c(/C=N/N5CCN(C6CCCC6)CC5)c(O)c4c3C2=O)NC(=O)/C(C)=C\C=C\[C@H](C)[C@H](O)[C@@H](C)[C@@H](O)[C@@H](C)[C@H](OC(C)=O)[C@@H]1C [rifapentine], the “total FIC50” value [1, 6] was 4.53, the “total FIC50” value [1, 7] was 4.23 and the “total FIC50” value [1, 8] was 2.86. The “total FIC50” value [1, 9] was 2.77, the “total FIC50” value [1, 10] was 1.97 and the “total FIC50” value [1, 11] was 2.05. The “total FIC50” value [1, 12] was 0.663, the “total FIC50” value [1, 13] was 0.773 and the “total FIC50” value [1, 14] was 2.68. For the same molecule, the “total FIC50” value [1, 15] was 2.7, the “total FIC50” value [1, 16] was 4.92 and the “total FIC50” value [1, 17] was 2.74. For the same molecule, the “total FIC50” value [1, 18] was 3.29, the AUC25 [2, 6] was 0.0727 and the AUC25 [2, 7] was 0.0598. The AUC25 [2, 8] was 0.0925, the AUC25 [2, 9] was 0.0727 and the AUC25 [2, 10] was 0.0995. The AUC25 [2, 11] was 0.0863, the AUC25 [2, 12] was 0.0548 and the AUC25 [2, 13] was 0.0663. The AUC25 [2, 14] was 0.0593, the AUC25 [2, 15] was 0.0428 and the AUC25 [2, 16] was 0.0426. For the same molecule, the AUC25 [2, 17] was 0.102, the AUC25 [2, 18] was 0.0549 and the “total FIC90” value [3, 7] was 4.33. The “total FIC90” value [3, 8] was 1.02, the “total FIC90” value [3, 9] was 2.95 and the “total FIC90” value [3, 11] was 0.57. For the same molecule, the “total FIC90” value [3, 13] was 0.83, the “total FIC90” value [3, 14] was 2.64 and the “total FIC90” value [3, 15] was 2.66. The “total FIC90” value [3, 19] was 0.264, the “total FIC90” value [3, 18] was 2.95 and the GRinf [4, 6] was -0.193. It also gave a GRinf [4, 7] of -0.24, a GRinf [4, 8] of -0.00998 and a GRinf [4, 9] of 0.00856. The GRinf [4, 10] was -0.151, the GRinf [4, 11] was -0.223 and the GRinf [4, 12] was -0.0225. The GRinf [4, 13] was -0.46, the GRinf [4, 14] was 0.27 and the GRinf [4, 15] was -0.11. It also gave a GRinf [4, 19] of -0.647, a GRinf [4, 16] of 0.179 and a GRinf [4, 17] of -0.014. For the same molecule, the GRinf [4, 18] was -0.167, the Einf [5, 6] was 0.917 and the Einf [5, 7] was 0.992. It also gave an Einf [5, 8] of 0.927, an Einf [5, 9] of 0.966 and an Einf [5, 10] of 0.687. For the same molecule, the Einf [5, 11] was 0.914, the Einf [5, 12] was 0.808 and the Einf [5, 13] was 0.994. For the same molecule, the Einf [5, 14] was 0.871, the Einf [5, 15] was 0.978 and the Einf [5, 19] was 0.999. The Einf [5, 16] was 0.884, the Einf [5, 17] was 0.894 and the Einf [5, 18] was 0.938.
